From US20180214395A1 (priority 2017, published 2018)
Values joined by “and” are separate entries in the source; they are usually repeats but may differ in a detail not shown here. Equal entries are not always repeated. “Also recorded” adds a separate entry of the source. Where two headings read alike, the source gives them in different places.

What was measured:
[1] = MAD study: pupillary constriction; format: in vivo, human; conditions: mean (SD)
BDNF = BDNF levels (ELISA) in MAD study subjects; format: in vivo, human; conditions: for BDNF, individual subjects: hydrochloride
testosterone = assay: Serum testosterone levels in male MAD 25 mg subjects; format: in vivo, human; conditions: for Testosterone Levels, individual male subjects: hydrochloride
[2] = Serum glucose (colorimetric kit) in MAD 25 mg subjects; format: in vivo, human; conditions: 25 mg per day for 10 days; for Mean serum glucose change vs baseline: six treated subjects; for serum glucose, individual subjects: hydrochloride
[3] = Body weight gain in rats (chronic constrictive nerve injury model experiment); format: in vivo; conditions: rat
Forced swim test = format: in vivo, rat; conditions: for Immobility, Mean frequency / Swimming, Mean frequency: single administration 24 hours prior, 60 counts per subject; for Immobility, Mean Diff. (Fisher's PLSD) / Swimming, Mean Diff. (Fisher's PLSD): Vehicle minus treatment
[4] = Locomotor activity assessment (distance traveled, rearing); format: in vivo, rat; conditions: for Distance traveled min 1-5, Mean / Rearing min 1-5, Mean / Total Distance Traveled, Mean / Total Rearing, Mean: 24 hours prior to testing; for Total Rearing, Mean: 60 minute test
[5] = Female urine sniffing test (FUST); format: in vivo; conditions: rat; 24 hr after single dose; ketamine 10 mg/kg ip, d-methadone 20 mg/kg sc
[6] = Novelty-suppressed feeding test (NSFT); format: in vivo; conditions: rat; 72 hr after single dose; ketamine 10 mg/kg ip, d-methadone 20 mg/kg sc
[7] = molecular target: T1, norepinephrine transporter (NET) (Rattus norvegicus, UniProt Q63380); assay: Norepinephrine uptake assay; format: biochemical
T1 construct: tissue Eurofins Cerep; host or cells: rat hypothalamus synaptosomes (own knowledge of the vendor's assay)
T1 sequence (Q63380 1-617): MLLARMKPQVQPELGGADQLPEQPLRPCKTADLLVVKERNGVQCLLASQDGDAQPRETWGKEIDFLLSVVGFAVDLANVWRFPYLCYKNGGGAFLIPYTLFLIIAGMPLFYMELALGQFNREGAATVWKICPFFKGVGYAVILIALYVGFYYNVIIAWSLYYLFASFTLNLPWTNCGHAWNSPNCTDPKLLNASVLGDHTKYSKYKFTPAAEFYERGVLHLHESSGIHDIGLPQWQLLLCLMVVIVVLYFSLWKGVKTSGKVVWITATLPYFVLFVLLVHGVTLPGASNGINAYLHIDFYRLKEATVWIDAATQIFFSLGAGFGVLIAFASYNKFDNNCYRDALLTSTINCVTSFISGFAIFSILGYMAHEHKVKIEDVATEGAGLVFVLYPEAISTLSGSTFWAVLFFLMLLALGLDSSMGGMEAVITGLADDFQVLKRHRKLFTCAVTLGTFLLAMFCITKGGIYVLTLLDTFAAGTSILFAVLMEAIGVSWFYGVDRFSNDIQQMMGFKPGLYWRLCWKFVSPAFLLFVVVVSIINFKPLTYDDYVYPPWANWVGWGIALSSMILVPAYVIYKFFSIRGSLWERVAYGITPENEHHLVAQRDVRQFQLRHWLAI

[8] = Modified Mini Mental State (3MS) in patients with chronic cancer pain (phase I-2a study); format: in vivo, human; conditions: 40 mg every 12 hours for 12 days
[9] = both, human, in vivo
[10] = in vivo
[11] = in vivo; remark: listed apart in the source
[12] = human, in vivo
[13] = molecular target: T2, serotonin transporter (SERT or 5-HT) (Rattus norvegicus, UniProt P31652)
T2 sequence (P31652 whole entry): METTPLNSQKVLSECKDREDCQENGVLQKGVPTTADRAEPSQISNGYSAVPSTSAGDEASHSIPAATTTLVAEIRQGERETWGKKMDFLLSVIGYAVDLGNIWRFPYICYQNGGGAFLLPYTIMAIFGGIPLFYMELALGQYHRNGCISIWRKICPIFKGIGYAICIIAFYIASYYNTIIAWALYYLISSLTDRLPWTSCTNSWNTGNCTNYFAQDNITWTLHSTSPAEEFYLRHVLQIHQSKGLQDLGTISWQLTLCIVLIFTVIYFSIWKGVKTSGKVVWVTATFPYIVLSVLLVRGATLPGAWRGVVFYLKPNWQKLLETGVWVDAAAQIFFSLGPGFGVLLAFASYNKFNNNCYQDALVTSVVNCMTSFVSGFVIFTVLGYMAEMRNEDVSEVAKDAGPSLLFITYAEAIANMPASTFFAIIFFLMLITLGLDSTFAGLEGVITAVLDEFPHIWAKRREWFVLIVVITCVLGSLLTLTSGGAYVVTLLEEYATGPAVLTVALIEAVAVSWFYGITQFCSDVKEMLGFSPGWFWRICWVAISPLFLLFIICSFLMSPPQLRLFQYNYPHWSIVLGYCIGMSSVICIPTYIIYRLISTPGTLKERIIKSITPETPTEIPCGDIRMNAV

clinical = conditions: both, human, in vivo
[14] = molecular target: T2, serotonin transporter (SERT or 5-HT); assay: biochemical
[15] = Clinical Opiate Withdrawal Scale (COWS) after abrupt discontinuation, MAD study; conditions: abrupt discontinuation after 10 consecutive days
[16] = Single ascending dose (SAD) study in healthy volunteers: pharmacokinetics of d-methadone; conditions: both, human, in vivo
[17] = Bond-Lader Visual Analog Scale (cognitive and psychotomimetic effects), SAD and MAD studies
[18] = rat, 24 h after dosing, one-way ANOVA
[19] = 2-3-5 hours after single dose 5 mg, SAD

CCC(=O)C(C[C@H](C)N(C)C)(c1ccccc1)c1ccccc1 [d-methadone]
Greatest mean pupillary constriction (MPC) ([1]; MAD 25 mg, Day 9): −1.32 (0.553) mm | Greatest mean pupillary constriction (MPC) ([1]; MAD 50 mg, Day 6): −1.43 (0.175) mm | Greatest mean pupillary constriction (MPC) ([1]; MAD 75 mg, Day 5): −2.24 (0.619) mm | Subjects with increase in BDNF levels post treatment vs pre-treatment (BDNF; 25 mg a day for ten days): 6 of 6 | BDNF serum levels (BDNF; 25 mg, healthy volunteers): significantly increases | BDNF levels after treatment vs pre-treatment (BDNF; 50 mg and 75 mg doses, not statistically significant against placebo): consistently showed an increase | BDNF, individual subjects (BDNF; Day 2 hr 4, 25 mg a day oral): BDNF 3.603 ng/L; also recorded: BDNF 2.529 ng/L; also recorded: BDNF 2.038 ng/L; also recorded: BDNF 1.862 ng/L; also recorded: BDNF 8.995 ng/L; also recorded: BDNF 2.750 ng/L | BDNF, individual subjects (BDNF; Day 6 hr 4, 25 mg a day oral): 4.820 ng/mL and 2.920 ng/mL and 2.348 ng/mL and 2.458 ng/mL and 3.790 ng/mL | BDNF, individual subjects (BDNF; Day 10 hr 4, 25 mg a day oral): 4.004 ng/mL and 10.697 ng/mL and 2.853 ng/mL and 4.347 ng/mL and 5.459 ng/mL and 3.733 ng/mL | BDNF, individual subjects (BDNF; Pre-Treatment (baseline), MAD 25 mg subjects): 1.143 ng/mL and BDNF 0.612 ng/mL and 0.376 ng/mL and 0.460 ng/mL and 0.497 ng/mL and 1.922 ng/mL | BDNF_T0 Mean (BDNF; baseline, w/o placebo, N 6): .83100 ng/mL | BDNF_D2 Mean (BDNF; day 2, 25 mg a day, w/o placebo, N 6): 3.63 ng/mL | BDNF_D6 Mean (BDNF; day 6, 25 mg a day, w/o placebo, N 5): 3.267 ng/mL | BDNF_D10 Mean (BDNF; day 10, 25 mg a day, w/o placebo, N 6): 5.182 ng/mL | Testosterone serum levels (testosterone; 25 mg once per day for ten days, three male subjects): increased | Testosterone Levels, individual male subjects (testosterone; Day 6, 25 mg once a day for 10 days): 13.1 nmol/L | Testosterone Levels, individual male subjects (testosterone; Day 12, 25 mg once a day for 10 days): 14.4 nmol/L and 10.1 nmol/L | Testosterone Levels, individual male subjects (testosterone; Follow Up (Day 18 ± 1), 25 mg once a day for 10 days): 9.6 nmol/L and 13.6 nmol/L and 8.1 nmol/L | Testosterone Levels, individual male subjects (testosterone; Screening (Day −1), baseline, normal range 7.6-31.4): 7.4 nmol/L and 9.2 nmol/L and 4.1 nmol/L | Mean serum glucose change vs baseline ([2]; day 10): −0.08 mmol/I | Mean serum glucose change vs baseline ([2]; day 12): −0.43 mmol/I | serum glucose, individual subjects ([2]; Day-10): 3.2 mmol/I and 4.9 mmol/I | serum glucose, individual subjects ([2]; Day-12): 4.9 mmol/I (3×) and 4.1 mmol/I | mean weight gain baseline to day 15 ([3]; 10 mg/kg s.c. once daily 15 days): 41 grams | mean weight gain baseline to day 15 ([3]; 20 mg/kg s.c. once daily 15 days): 36 grams | Body weight gain vs vehicle-treated animals ([3]; 40 mg/kg S.C. once daily for 15 days): lower weight gain | mean weight gain baseline to day 15 ([3]; 40 mg/kg s.c. once daily 15 days): 22 grams | Immobility, Mean frequency (Forced swim test; 10 mg/kg): 31.400 | Swimming, Mean frequency (Forced swim test; 10 mg/kg): 20.200 | Immobility, Mean frequency (Forced swim test; 20 mg/kg): 23.556 | Swimming, Mean frequency (Forced swim test; 20 mg/kg): 32.667 | Immobility, Mean frequency (Forced swim test; 40 mg/kg): 23.200 | Swimming, Mean frequency (Forced swim test; 40 mg/kg): 26.200 | Immobility, Mean Diff. (Fisher's PLSD) (Forced swim test; 10 mg/kg): 17.600 | Swimming, Mean Diff. (Fisher's PLSD) (Forced swim test; 10 mg/kg): −12.978 | Immobility, Mean Diff. (Fisher's PLSD) (Forced swim test; 20 mg/kg): 25.444 | Swimming, Mean Diff. (Fisher's PLSD) (Forced swim test; 20 mg/kg): −25.444 | Immobility, Mean Diff. (Fisher's PLSD) (Forced swim test; 40 mg/kg): 25.800 | Swimming, Mean Diff. (Fisher's PLSD) (Forced swim test; 40 mg/kg): −18.978 | Distance traveled min 1-5, Mean ([4]; 10 mg/kg): 597.167 | Rearing min 1-5, Mean ([4]; 10 mg/kg): 26.333 | Total Distance Traveled, Mean ([4]; 10 mg/kg): 2605.500 cm/60 min | Total Rearing, Mean ([4]; 10 mg/kg): 119.167 | Distance traveled min 1-5, Mean ([4]; 20 mg/kg): 556.833 | Rearing min 1-5, Mean ([4]; 20 mg/kg): 28.667 | Total Distance Traveled, Mean ([4]; 20 mg/kg): 2060.667 cm/60 min | Total Rearing, Mean ([4]; 20 mg/kg): 100.167 | Distance traveled min 1-5, Mean ([4]; 40 mg/kg): 447.500 | Rearing min 1-5, Mean ([4]; 40 mg/kg): 17.333 | Total Distance Traveled, Mean ([4]; 40 mg/kg): 1773.000 cm/60 min | Total Rearing, Mean ([4]; 40 mg/kg): 75.000 | Locomotor activity: total distance traveled (60 min) [4, 18]: no significant effect | Locomotor activity: total rearing frequency (60 min) [4, 18]: no significant effect | FUST: time sniffing water [5]: no effect | FUST: time spent sniffing female urine vs vehicle [5]: increased | NSFT: latency to eat in a novel open field [6]: significantly decreased | IC50 [7]: 8.2 µM | norepinephrine uptake, % inhibition ([7]; 1.0E−05 M): 61.6% | Inhibition of norepinephrine uptake by NET ([7]; […]): significant inhibition | Patients with 3MS improvement by at least one point [8]: five out of six | Number of doses to steady state [9]: 6-7 doses | AUCtau ([9]; 25 mg): 4392 ng·h/mL | AUCtau ([9]; 50 mg): 10,147 h*ng/mL | AUCtau ([9]; 75 mg): 10,537 h*ng/mL | Tolerability [10]: well tolerated | TEAE: any event ([11]; both, human): 5 n (%) [number of events] | TEAE: dizziness ([11]; both, human): 1 n (%) [number of events] | Tolerability [11]: well tolerated | Maximum QTcF interval observed ([12]; both): 462 ms | Model-predicted ΔΔQT effect at geometric mean plasma concentration ([12]; both): 16.0 to 21.0 ms | QTc, individual prolonged value ([12]; male): 434 ms | inhibition [13]: 91% and 92.7% and 89.3% | AUC(0-inf) (clinical; 25 mg): 13000 ng·h/mL | Tmax (clinical; 25 mg, Tmax): 2.35 h | AUC(0-inf) (clinical; 50 mg): 32000 ng·h/mL | Cmax (clinical; 50 mg): 587 ng/mL | AUC(0-inf) (clinical; 75 mg): 28900 ng·h/mL | Cmax (clinical; 75 mg): 563 ng/mL | IC50 [14]: 0.12 µM | Withdrawal symptoms (COWS) [15]: did not cause symptoms of withdrawal | AUC(0-inf) ([16]; 5 mg): 1190 ng·h/mL | AUC(0-t) ([16]; 5 mg, AUC0-24, SAD 5 mg, mean): 675 ng·h/mL | AUC(0-t) ([16]; 5 mg, AUC0-last, SAD 5 mg, mean): 1250 ng·h/mL | Cmax ([16]; 5 mg, median, SAD 5 mg): 48.4 ng/mL | AUC(0-inf) ([16]; 20 mg): 6230 ng·h/mL | AUC(0-t) ([16]; 20 mg, AUC0-24, SAD 20 mg, mean): 2310 ng·h/mL | AUC(0-t) ([16]; 20 mg, AUC0-last, SAD 20 mg, mean): 4620 ng·h/mL | Cmax ([16]; 20 mg, SAD 20 mg, mean): 163 ng/mL | AUC(0-inf) ([16]; 60 mg): 14100 ng·h/mL | AUC(0-t) ([16]; 60 mg, AUC0-24, SAD 60 mg, mean): 5540 ng·h/mL | AUC(0-t) ([16]; 60 mg, AUC0-last, SAD 60 mg, mean): 13600 ng·h/mL | Cmax ([16]; 60 mg, SAD 60 mg, mean): 404 ng/mL | AUC(0-inf) ([16]; 100 mg): 31100 ng·h/mL | AUC(0-t) ([16]; 100 mg, AUC0-24, SAD 100 mg, mean): 10700 ng·h/mL | AUC(0-t) ([16]; 100 mg, AUC0-last, SAD 100 mg, mean): 29700 ng·h/mL | Cmax ([16]; 100 mg, SAD 100 mg, mean): 739 ng/mL | AUC(0-inf) ([16]; 150 mg): 32600 ng·h/mL | AUC(0-t) ([16]; 150 mg, AUC0-24, SAD 150 mg, mean): 14600 ng·h/mL | AUC(0-t) ([16]; 150 mg, AUC0-last, SAD 150 mg, mean): 37200 ng·h/mL | Cmax ([16]; 150 mg, SAD 150 mg, mean): 1060 ng/mL | AUC(0-t) ([16]; 200 mg, AUC0-24, SAD 200 mg, n=1): 20700 ng·h/mL | AUC(0-t) ([16]; 200 mg, AUC0-last, SAD 200 mg, n=1): 67700 ng·h/mL | Cmax ([16]; 200 mg, SAD 200 mg, n=1): 1530 ng/mL | Bond-Lader VAS mean score: I am feeling drowsy (0: Alert, 100: Drowsy) [17, 19]: 19.1 | Bond-Lader VAS mean score: I am feeling proficient (0: Incompetent, 100: Proficient) [17, 19]: 93.6 | Bond-Lader VAS mean score: I am feeling quick witted (0: Mentally slow, 100: Quick witted) [17, 19]: 91.8 | Bond-Lader Visual Analog Scale, domains of mental alertness and cognitive functions, vs placebo arm ([17]; SAD 5 mg single dose, 2-3-5 hours post dose): improved scores | Cognitive deficits or psychotomimetic effects (Bond-Lader Visual Analog Scale) ([17]; healthy subjects of SAD and MAD studies): did not cause clinically significant cognitive deficits or psychotomimetic effects
